Measured values reported in patent US20120094964A1, “SULFAMOYL BENZOIC ACID DERIVATIVES AS TRPM8 ANTAGONISTS” (priority 2009, published 2012).

target: T1, human TRPM8 (Homo sapiens, UniProt Q7Z2W7); test: In Vitro human TRPM8 Functional Assay (intracellular Ca2+, Fluo4, FDSS, menthol activation); assay type: cell-based; details: HEK293 cells stably expressing human TRPM8; activation with L-(-)-Menthol; 11-point dose-response
T1 construct: expressed in transfected cells
Method in brief: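 Fluo4-loaded HEK293 cells stably expressing TRPM8 were preincubated with compound for 5 min at room temperature, then stimulated with L-menthol (20 μl of 90 μM stock) while fluorescence was read. IC50 values come from 11-point curves fitted to the mean of duplicate wells.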

T1 sequence (Q7Z2W7 whole entry): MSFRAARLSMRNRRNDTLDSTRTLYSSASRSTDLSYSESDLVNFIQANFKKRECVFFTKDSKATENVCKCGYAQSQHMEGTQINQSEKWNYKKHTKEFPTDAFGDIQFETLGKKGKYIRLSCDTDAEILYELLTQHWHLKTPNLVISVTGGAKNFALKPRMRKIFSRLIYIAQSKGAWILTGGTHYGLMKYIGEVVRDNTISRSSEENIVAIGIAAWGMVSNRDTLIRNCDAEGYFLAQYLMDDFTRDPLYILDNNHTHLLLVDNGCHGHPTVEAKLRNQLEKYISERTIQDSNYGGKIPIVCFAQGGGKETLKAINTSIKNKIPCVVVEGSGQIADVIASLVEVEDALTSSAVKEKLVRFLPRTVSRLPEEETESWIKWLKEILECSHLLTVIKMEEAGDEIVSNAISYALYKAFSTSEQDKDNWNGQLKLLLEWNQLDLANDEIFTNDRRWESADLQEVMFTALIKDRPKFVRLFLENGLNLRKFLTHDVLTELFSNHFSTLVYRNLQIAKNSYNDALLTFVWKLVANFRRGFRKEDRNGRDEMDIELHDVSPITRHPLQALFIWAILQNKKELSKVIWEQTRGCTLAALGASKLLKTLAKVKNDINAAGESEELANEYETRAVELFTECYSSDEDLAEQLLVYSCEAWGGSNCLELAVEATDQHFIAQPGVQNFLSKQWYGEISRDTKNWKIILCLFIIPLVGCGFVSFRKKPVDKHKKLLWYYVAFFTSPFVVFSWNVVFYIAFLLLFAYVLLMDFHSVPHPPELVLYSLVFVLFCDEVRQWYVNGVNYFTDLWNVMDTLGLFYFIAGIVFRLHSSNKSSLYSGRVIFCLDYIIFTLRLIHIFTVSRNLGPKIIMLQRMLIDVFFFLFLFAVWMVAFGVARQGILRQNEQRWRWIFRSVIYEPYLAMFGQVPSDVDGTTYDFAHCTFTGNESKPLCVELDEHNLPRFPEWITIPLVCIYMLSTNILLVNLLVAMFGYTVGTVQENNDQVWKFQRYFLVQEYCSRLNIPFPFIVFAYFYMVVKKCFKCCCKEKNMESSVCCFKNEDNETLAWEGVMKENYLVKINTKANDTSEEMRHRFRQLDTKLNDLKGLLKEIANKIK

SMILES | IC50
O=C(O)c1cccc(S(=O)(=O)N(Cc2ccccc2)c2ccccc2Cl)c1 [Example 112, 3-(N-Benzyl-N-(2-chlorophenyl)sulfamoyl) benzoic acid] | 10 to 30 µM
COc1ccc(N(Cc2ccccc2)S(=O)(=O)c2cccc(C(=O)O)c2)cc1 [Example 113, 3-(N-Benzyl-N-(4-methoxyphenyl)sulfamoyl) benzoic acid] | 1 to 10 µM
COc1ccccc1N(Cc1ccccc1)S(=O)(=O)c1cccc(C(=O)O)c1 [Example 114, 3-(N-Benzyl-N-(2-methoxyphenyl)sulfamoyl) benzoic acid] | 10 to 30 µM
O=C(O)c1cccc(S(=O)(=O)N(Cc2ccccc2)c2ccc(Cl)cc2)c1 [Example 115, 3-(N-Benzyl-N-(4-chlorophenyl)sulfamoyl) benzoic acid] | 1 to 10 µM
O=C(O)c1cccc(S(=O)(=O)N(Cc2ccccc2)c2ccccc2)c1 [Example 116, 3-(N-Benzyl-N-phenylsulfamoyl)benozic acid] | 10 to 30 µM
O=C(O)c1cc(S(=O)(=O)N(Cc2ccccc2)c2ccccc2)ccc1Cl [Example 117, 5-(N-Benzyl-N-phenylsulfamoyl)-2-chlorobenzoic acid] | 10 to 30 µM
COc1ccccc1N(Cc1ccccc1)S(=O)(=O)c1cc(C(=O)O)ccc1Cl [Example 118, 3-(N-Benzyl-N-(2-methoxyphenyl)sulfamoyl)-4-chlorobenzoic acid] | 1 to 10 µM
COc1ccc(N(Cc2ccccc2)S(=O)(=O)c2ccc(Cl)c(C(=O)O)c2)cc1 [Example 119, 5-(N-Benzyl-N-(4-methoxyphenyl)sulfamoyl)-2-chlorobenzoic acid] | 10 to 30 µM
O=C(O)c1ccc(Cl)c(S(=O)(=O)N(Cc2ccccc2)c2ccccc2Cl)c1 [Example 120, 3-(N-Benzyl-N-(2-chlorophenyl)sulfamoyl)-4-chlorobenzoic acid] | 1 to 10 µM
O=C(O)c1cc(S(=O)(=O)N(Cc2ccccc2)c2ccccc2Cl)ccc1Cl [Example 121, 5-(N-Benzyl-N-(2-chlorophenyl)sulfamoyl)-2-chlorobenzoic acid] | 1 to 10 µM
O=C(O)c1cc(S(=O)(=O)N(Cc2ccccc2)c2ccc(Cl)cc2)ccc1Cl [Example 122, 5-(N-Benzyl-N-(4-chlorophenyl)sulfamoyl)-2-chlorobenzoic acid] | 1 to 10 µM
O=C(O)c1ccc(Cl)c(S(=O)(=O)N(Cc2ccccc2)c2ccc(F)cc2)c1 [Example 123, 3-(N-Benzyl-N-(4-fluorophenyl)sulfamoyl)-4-chlorobenzoic acid] | 10 to 30 µM
COc1ccc(N(Cc2ccccc2)S(=O)(=O)c2cc(C(=O)O)ccc2Cl)cc1 [Example 124, 3-(N-Benzyl-N-(4-methoxyphenyl)sulfamoyl)-4-chlorobenzoic acid] | 1 to 10 µM
CCOc1ccccc1N(Cc1ccc(Cl)cc1)S(=O)(=O)c1cccc(C(=O)O)c1 [Example 125, 3-(N-(4-Chlorobenzyl)-N-(2-ethoxyphenyl)sulfamoyl) benzoic acid] | 1 to 10 µM
O=C(O)c1ccc(Cl)c(S(=O)(=O)N(Cc2ccccc2)c2ccccc2)c1 [Example 126, 3-(N-Benzyl-N-phenylsulfamoyl)-4-chlorobenzoic acid] | 10 to 30 µM
Cc1cc(C)c(S(=O)(=O)N(Cc2ccccc2)c2ccccn2)c(C)c1 [Example 127, N-Benzyl-2,4,6-trimethyl-N-(pyridin-2-yl)benzene-sulfonamide] | 1 to 10 µM
O=S(=O)(c1cccc2cccnc12)N(Cc1ccccc1)c1ccccn1 [Example 128, N-Benzyl-N-(pyridin-2-yl) quinoline-8-sulfonamide] | 1 to 10 µM
O=S(=O)(c1ccc(Cl)cc1)N(Cc1ccccc1)c1ccccn1 [Example 129, N-Benzyl-4-chloro-N-(pyridin-2-yl)benzene-sulfonamide] | 1 to 10 µM
O=[N+]([O-])c1ccc(S(=O)(=O)N(Cc2ccccc2)c2ccccn2)cc1 [Example 130, N-Benzyl-4-nitro-N-(pyridin-2-yl)benzene-sulfonamide] | 1 to 10 µM
O=S(=O)(c1ccccc1)N(Cc1ccccc1)c1ccccn1 [Example 131, N-Benzyl-N-(pyridin-2-yl)benzenesulfonamide] | 1 to 10 µM
COc1ccc(S(=O)(=O)N(Cc2ccccc2)c2ccccn2)cc1 [Example 132, N-Benzyl-4-methoxy-N-(pyridin-2-yl)benzene-sulfonamide] | 1 to 10 µM
Cc1ccc(S(=O)(=O)N(Cc2ccccc2)c2ccccn2)cc1[N+](=O)[O-] [Example 133, N-Benzyl-4-methyl-3-nitro-N-(pyridin-2-yl) benzenesulfonamide] | 1 to 10 µM
COc1ccc(N(C(C)c2ccc(C)cc2)S(=O)(=O)c2cc(Cl)ccc2F)cc1 (centres unmarked) [Example 134, 5-Chloro-2-fluoro-N-(4-methoxyphenyl)-N-(1-p-tolylethyl)benezene-sulfonamide] | 1 to 10 µM
COc1ccc(OC)c(C(C)N(c2ccc(F)cc2)S(=O)(=O)c2ccc(F)cc2C)c1 (centres unmarked) [Example 135, N-(1-(2,5-Dimethoxyphenyl)ethyl)-4-fluoro-N-(4-fluoro-phenyl)-2-methylbenzene-sulfonamide] | 1 to 10 µM
COc1ccc(OC)c(C(C)N(c2cccc(F)c2)S(=O)(=O)c2cc(F)ccc2C)c1 (centres unmarked) [Example 136, N-(1-(2,5-Dimethoxyphenyl)ethyl)-5-fluoro-N-(3-fluorophenyl)-2-methyl-benzenesulfonamide] | 1 to 10 µM
COc1ccc(C(C)N(c2ccc(OC)cc2)S(=O)(=O)c2ccc(C)c(Cl)c2)cc1 (centres unmarked) [Example 137, 3-Chloro-N-(4-methoxyphenyl)-N-(1-(4-methoxy-phenyl)ethyl)-4-methyl benzenesulfonamide] | 10 to 30 µM
COc1cccc(C(C)N(c2ccccc2)S(=O)(=O)c2cccc(F)c2)c1 (centres unmarked) [Example 138, 3-Fluoro-N-(1-(3-methoxy-phenyl)ethyl)-N-phenyl-benzenesulfonamide] | 1 to 10 µM
COc1cccc(C(C)N(c2cccc(Cl)c2)S(=O)(=O)c2ccc(F)cc2C)c1 (centres unmarked) [Example 139, N-(3-Chlorophenyl)-4-fluoro-N-(1-(3-methoxy-phenyl)ethyl)-2-methyl-benzenesulfonamide] | 1 to 10 µM

Next, values leading:

IC50 | SMILES
1 to 10 µM | Cc1ccc(S(=O)(=O)N(Cc2ccccc2)c2ccccn2)cc1 [Example 106, N-Benzyl-4-methyl-N-(pyridin-2-yl) benzenesulfonamide]
1 to 10 µM | CC(=O)Nc1ccc(S(=O)(=O)N(Cc2ccccc2)c2ccccn2)cc1 [Example 107, N-(4-(N-Benzyl-N-(pyridin-2-yl)sulfamoyl)phenyl)acetamide]
1 to 10 µM | O=S(=O)(c1ccc(F)cc1)N(Cc1ccccc1)c1ccccn1 [Example 108, N-Benzyl-4-fluoro-N-(pyridin-2-yl)benezene-sulfonamide]
1 to 10 µM | O=S(=O)(c1cc(Cl)ccc1Cl)N(Cc1ccccc1)c1ccccn1 [Example 109, N-Benzyl-2,5-dichloro-N-(pyridin-2-yl)benzene sulfonamide]
1 to 10 µM | O=C(O)c1ccc(Cl)c(S(=O)(=O)N(Cc2ccccc2)c2ccc(Cl)cc2)c1 [Example 110, 3-(N-Benzyl-N-(4-chlorophenyl)sulfamoyl)-4-chlorobenzoic acid]
1 to 10 µM | O=C(O)c1cccc(S(=O)(=O)N(Cc2ccccc2)c2cccc(C(F)(F)F)c2)c1 [Example 111, 3-(N-Benzyl-N-(3-(trifluoromethyl)phenyl)sulfamoyl)benzoic acid]
< 1 µM | C[Si](C)(C)c1ccc(CN(c2ncc(C(F)(F)F)cc2Cl)S(=O)(=O)c2ccc(C(=O)O)cc2)cc1 [Example 140, 4-(N-(3-Chloro-5-(trifluoromethyl)pyridin-2-yl)-N-(4-(trimethylsilyl)benzyl)sulfamoyl)benzoic acid]
< 1 µM | O=C(O)c1ccc(S(=O)(=O)N(CC2CCN(c3ccccn3)CC2)c2ncc(C(F)(F)F)cc2Cl)cc1 [Example 142, 4-(N-(3-Chloro-5-(trifluoromethyl)pyridin-2-yl)-N-((1-(pyridin-2-yl)piperidin-4-yl)methyl)sulfamoyl)benzoic acid]
< 1 µM | Cc1cc(S(=O)(=O)N(Cc2ccccc2)c2ncc(C(F)(F)F)cc2Cl)ccc1C(=O)O [Example 143, 4-(N-Benzyl-N-(3-chloro-5-(trifluoromethyl)pyridin-2-yl)sulfamoyl)-2-methylbenzoic acid]
< 1 µM | O=S(=O)(c1ccc(O)nc1)N(Cc1ccccc1)c1ncc(C(F)(F)F)cc1Cl [Example 144, N-Benzyl-N-(3-chloro-5-(trifluoromethyl)pyridin-2-yl)-6-hydroxypyridine-3-sulfonamide]
< 1 µM | Cc1cc(C(=O)O)ccc1S(=O)(=O)N(Cc1ccccc1)c1ncc(C(F)(F)F)cc1Cl [Example 145, 4-(N-Benzyl-N-(3-chloro-5-(trifluoromethyl)pyridin-2-yl)sulfamoyl)-3-methylbenzoic acid]
< 1 µM | COc1cc(C(=O)O)ccc1S(=O)(=O)N(Cc1ccccc1)c1ncc(C(F)(F)F)cc1Cl [Example 146, 4-(N-Benzyl-N-(3-chloro-5-(trifluoromethyl)pyridin-2-yl)sulfamoyl)-3-methoxybenzoic acid]
< 1 µM | O=C(O)Cc1ccc(S(=O)(=O)N(Cc2ccccc2)c2ncc(C(F)(F)F)cc2Cl)cc1 [Example 147, 2-(4-(N-Benzyl-N-(3-chloro-5-(trifluoromethyl)pyridin-2-yl)sulfamoyl)phenyl)acetic acid]
< 1 µM | O=C(O)c1ccc(S(=O)(=O)N(CCc2ccccc2)c2ncc(C(F)(F)F)cc2Cl)cc1 [Example 148, 4-(N-(3-Chloro-5-(trifluoromethyl)pyridin-2-yl)-N-phenethylsulfamoyl)benzoic acid]
< 1 µM | O=C(O)c1ccc(S(=O)(=O)N(Cc2ccccc2)c2ncc(C(F)(F)F)cc2C2CC2)cc1 [Example 149, 4-(N-Benzyl-N-(3-cyclopropyl-5-(trifluoromethyl)pyridin-2-yl)sulfamoyl)benzoic acid]
< 1 µM | O=C(O)c1ccc(S(=O)(=O)N(Cc2ccc(C3CC3)cc2)c2ncc(C(F)(F)F)cc2Cl)cc1 [Example 150, 4-(N-(3-Chloro-5-(trifluoromethyl)pyridin-2-yl)-N-(4-cyclopropylbenzyl)sulfamoyl)benzoic acid]
